Where two headings read alike, the source gives them in different places.
Tests used:
[1] = HPLC quantitation of compound and metabolite concentration in rat serum and liver; settings: in vivo; for Liver Bis (bisphenol concentration) / Liver Parent (parent compound concentration) / Liver Quin (diphenoquinone concentration) / Serum Bis (bisphenol concentration) / Serum Quin (diphenoquinone concentration): 5760 min; for concentration at 96 h: po, 0.3% in diet, 4 days
Description: (§1) A typical experiment consists of 4-6 groups of rats (N=5 per group) with 1 group being a control which receives no MDL compound and the other groups being treated with 0.3% MDL compound. Some of the compounds are either repeated at 0.3% or evaluated again at the lower dose of 0.1%. House Male Sprague-Dawley rats, 50-100 g, (Harlan Laboratories, Indianapolis, Ind.) in groups of 5, feeding ad libitum water and Purina Rodent chow (#5002) with or without MDL compound as a dietary admixture for 4 days. Make dietary admixtures (0.3%) by mixing 1.2 grams of an MDL compound with 400 grams of Purina rodent chow (#5002). Mix the MDL compound with approximately 50 grams of food using a mortar and pestle. This is added to the remainder of the food and mixed for 3 hours on a rotary mixer. In the morning of day 5, anesthetize non-fasted rats with carbon dioxide, and collect blood by cardiac puncture. Sacrifice rats by cervical dislocation. Record body weights and liver weights in grams. Record food consumption as grams·day^-1 ·rat^-1. Deaths are recorded as mortality. Use aliquots of fresh serum for clinical chemistries, thiobarbituric acid reactive substances (TBARS) and conjugated diene measurements. Freeze aliquots of serum (~0.5 mL) and whole livers at -20° C. for compound and metabolite concentration determination at a later time.
Determine serum and liver concentrations of parent compound and the metabolites, bisphenol and diphenoquinone, by reverse phase HPLC using a Waters 990 Powerline system. Homegenize livers (1 gram samples) with 5.0 mL PBS, pH 7.4, using a Polytron tissue homogenizer at setting 5 for 20-30 seconds. Extract serum or liver homogenates as follows: add 100 μL of either serum or homogenate to 2.0 mL diethyl ether:ethanol (3:1) while vortexing the tube. Cap the sample tubes and centrifuge for 10 min at 5° C. at 3500 rpm in a Beckman GPKR centrifuge with a GH 3.7 rotor. Transfer the supernatants to clean tubes and dry under N2. Reconstitute samples with 200 μL of acetonitrile:hexane:0.1 M ammonium acetate (90:6.5:3.5, by vol.). Then, inject 100 μL onto a Waters Deltapak C18-300 Å column, and elute with an 83% acetonitrile:17% water mobile phase at a flow rate of 1.5 mL/min. Record absorbances at the wavelengths of 240, 254, and 420nm. Calculate compound concentrations from known quantities of authentic parent compounds after correction for recovery. […]. Calculate concentrations as μg/mL of serum and μg/g of liver.

Male Sprague-Dawley Rats = test: Serum clinical chemistries in male Sprague-Dawley rats; assay type: in vivo
Protocol: Measurement of Antioxidant Activity and Bioavailability of Compounds of Formula (1) By In Vivo Screening in Male Sprague-Dawley Rats
as §1, with “Some of the compounds are either repeated at 0.3% or evaluated again at the lower dose of 0.1%. House Male Sprague-Dawley rats, 50-100 g, (Harlan Laboratories, Indianapolis, Ind.) in groups of 5, feeding ad libitum water and Purina Rodent chow (#5002) with or without MDL compound as a dietary admixture for 4 days. Make dietary admixtures (0.3%) by mixing 1.2 grams of an MDL compound with 400 grams of Purina rodent chow (#5002).” left out
Allow blood to clot at room temperature for 30 minutes. Obtain serum after centrifugation for 10 min at 4° C. at 3000 rpm in a Beckman J-6M/E centrifuge with a JS-4.2 rotor. […] Calculate ALP, ALT, and AST as units/L. Calculate cholesterol, triglycerides, and glucose as mg/dL.

[2] = Animal parameters (food, body weight, liver weight, mortality) in male Sprague-Dawley rats; assay type: in vivo; settings: for mortality at 96 h: po, read-out: mortality (deaths per group)
Description: as §1

[3] = test system: oxidation of serum lipids; test: TBARS assay (oxidation of serum lipids) in male Sprague-Dawley rats; assay type: in vivo; settings: feed or water, 96 h, rat serum, 4 days, N = 5, CuSO4-initiated, 3 hr, read-out: TBARS, percent of control
Protocol: as §1, with “Some of the compounds are either repeated at 0.3% or evaluated again at the lower dose of 0.1%. House Male Sprague-Dawley rats, 50-100 g, (Harlan Laboratories, Indianapolis, Ind.) in groups of 5, feeding ad libitum water and Purina Rodent chow (#5002) with or without MDL compound as a dietary admixture for 4 days. Make dietary admixtures (0.3%) by mixing 1.2 grams of an MDL compound with 400 grams of Purina rodent chow (#5002).” left out
In this assay the oxidation of serum lipids is initiated with CuSO4, resulting in the formation of aldehydes, such as malondialdehyde (MDA). Upon incubation with thiobarbituric acid, the absorbance of the aldehydes can be detected at 530-540 nm. […] Measure TBARS as follows: mix 100 μL of serum with 400 μL of a 5 mmol CuSO4 solution and incubate at 37° C. for 3 hr. Stop the reactions by addition of 1.0 mL of 20% trichloroacetic acid. […] Centrifuge samples briefly to pellet undissolved material, and transfer the supernatants to a 96-well microtiter plate. Measure absorbances at 540 nm using a Biotek model EL311 microplate reader. The nmoles of MDA produced are calculated from a standard curve of 0 to 10 nmoles of MDA prepared from malonaldehyde bis(dimethylacetal). Serum samples from treated rats are compared to serum samples from control rats that received no MDL compound.

[4] = mean N = 5, read-out: Serum Parent (parent compound concentration)
[5] = rat serum, 0.3% in diet, 4 days, N = 5
[6] = in vivo, rat, 0.3% in diet, 4 days, N = 5
[7] = rat, 0.3% in diet, 4 days, N = 5
[8] = mean N = 5, read-out: Liver Parent (parent compound concentration)

Compound	Liver Bis (bisphenol concentration) [1]	Liver Quin (diphenoquinone concentration) [1]	Serum Bis (bisphenol concentration) [1]	Serum Quin (diphenoquinone concentration) [1]	concentration at 96 h [1, 4] [ng/mL]	ALP (alkaline phosphatase), percent of control (Male Sprague-Dawley Rats; [5]) [%]	ALT (alanine aminotransferase), percent of control (Male Sprague-Dawley Rats; [5]) [%]	AST (aspartate aminotransferase), percent of control (Male Sprague-Dawley Rats; [5]) [%]	GLUC (glucose), percent of control (Male Sprague-Dawley Rats; rat, in vivo) [%]	food (grams eaten per day per rat), percent of control ([2]; in vivo) [%]	mortality at 96 h [2, 6] [%]	body wt., percent of control ([2]; rat, in vivo) [%]	response vs control in vivo at 0.3 % in diet [3] [%]	food (grams eaten per day per rat), percent of control ([2]; 0.3% in diet, 4 days, N = 5) [%]	body wt., percent of control [2, 7] [%]	concentration at 96 h [1, 8] [ng/g]	other results
CC(C)=CCC[C@H](C)CCOc1ccc(O)c(C(C)(C)C)c1 [103,649]	0	0	0	0	1400	74	119	82	101	95	0	94	29	–	–	–	Liver Parent (parent compound concentration) [1]: 0; response vs control in vivo at 0.3 % in diet (Male Sprague-Dawley Rats; Rattus norvegicus, feed or water, 96 h, read-out: TRIG (triglycerides), percent of control): 143%
CC(C)=CCC[C@H](C)CCSc1ccc(O)c(C(C)(C)C)c1 [103,714]	0	0	0	0	2700	111	120	104	95	–	0	–	21	102	103	–	Liver Parent (parent compound concentration) [1]: 0
CC(C)=CCCC(C)CCSc1cc(C(C)(C)C)c(O)c(C(C)(C)C)c1 (centres unmarked) [103,960]	–	0	0	0	8700	125	117	–	110	105	0	–	24	–	100	47300	AST (aspartate aminotransferase), percent of control (Male Sprague-Dawley Rats; rat, in vivo): 102%; lw/bw (liver weight/body weight), percent of control [2, 7]: 130%
CC(C)CCCC(C)CCOc1cc(C(C)(C)C)c(O)c(C(C)(C)C)c1 (centres unmarked) [104,102]	0	0	0	0	32800	–	114	82	98	–	0	–	71	92	97	481000	ALP (alkaline phosphatase), percent of control (Male Sprague-Dawley Rats; rat, in vivo): 101%
CC(C)CCCC(C)CCOc1ccc(O)c(C(C)(C)C)c1 (centres unmarked) [104,191]	0	0	0	0	6900	81	149	146	106	76	0	92	20	–	–	16100	–
CC(CCCC(C)(C)O)CCSc1cc(C(C)(C)C)c(O)c(C(C)(C)C)c1 (centres unmarked) [104,487]	–	0	0	0	4100	137	129	124	–	–	0	–	87	90	95	3800	GLUC (glucose), percent of control (Male Sprague-Dawley Rats; [5]): 92%
CC(C)=CCC[C@@H](C)CCOc1cc(C(C)(C)C)c(O)c(C(C)(C)C)c1 [104,535]	0	0	0	0	16300	151	108	–	–	95	0	102	11	–	–	60300	GLUC (glucose), percent of control (Male Sprague-Dawley Rats; [5]): 112%; AST (aspartate aminotransferase), percent of control (Male Sprague-Dawley Rats; rat, in vivo): 94%

— US6114572A, “Substituted phenols and thiophenols useful as antioxidant agents” (priority 1997, dated 2000)
